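48-hour exposure; five concentrations; linearly interpolated endpoints. The concentration for 50% growth inhibition is given as GI50. TGI marks complete inhibition of growth.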 Where a SMILES comes first, the peptide text is derived from it. [ ]: non-standard residue; d: D form. The star is where a group is joined. Phe(4-NO2) = N[CH](Cc1ccc([N+](=O)[O-])cc1)C(=O)O; Cbz = O=C(OCc1ccccc1)*
Key:
Experiment in all cases: NCI tumour cell line growth inhibition, 48 h
COLO 205 colon = system: COLO 205 colon
HCC-2998 colon = system: HCC-2998 colon
HCT-116 colon = system: HCT-116 colon
IGROV1 ovarian = system: IGROV1 ovarian
K-562 leukemia = system: K-562 leukemia
LOX IMVI melanoma = system: LOX IMVI melanoma
MOLT-4 leukemia = system: MOLT-4 leukemia
NCI-H23 lung = system: NCI-H23 lung
OVCAR-8 ovarian = system: OVCAR-8 ovarian
RPMI-8226 leukemia = system: RPMI-8226 leukemia
SW-620 colon = system: SW-620 colon
TK-10 renal = system: TK-10 renal
UACC-257 melanoma = system: UACC-257 melanoma
UACC-62 melanoma = system: UACC-62 melanoma
UO-31 renal = system: UO-31 renal
HCT-15 colon = system: HCT-15 colon
MDA-MB-435 = system: MDA-MB-435
BT-549 breast = system: BT-549 breast

SMILES	TGI (COLO 205 colon) [µM]	TGI (HCC-2998 colon) [µM]	TGI (HCT-116 colon) [µM]	TGI (IGROV1 ovarian) [µM]	TGI (K-562 leukemia) [µM]	TGI (LOX IMVI melanoma) [µM]	TGI (MOLT-4 leukemia) [µM]	TGI (NCI-H23 lung) [µM]	TGI (OVCAR-8 ovarian) [µM]	TGI (RPMI-8226 leukemia) [µM]	TGI (SW-620 colon) [µM]	TGI (TK-10 renal) [µM]	TGI (UACC-257 melanoma) [µM]	TGI (UACC-62 melanoma) [µM]	TGI (UO-31 renal) [µM]	TGI (HCT-15 colon) [µM]	TGI (MDA-MB-435) [µM]	GI50 (TK-10 renal) [µM]	GI50 (UO-31 renal) [µM]	TGI (BT-549 breast) [µM]
CC(C)C1C(=O)NC(CO)Cc2c[nH]c3c(C(c4c[nH]c5ccccc45)C(O)CO)ccc(c23)N1C (centres undefined)	38.6	18.5	> 100	> 100	> 100	> 100	> 100	> 100	> 100	> 100	> 100	> 100	> 100	> 100	> 100	–	–	–	–	–
CCOC(=O)C[C@@H](C)[C@]1(C(=O)OC)CCCC1=O	> 84.2	> 100	> 62.6	> 100	> 100	> 61.5	> 100	> 100	> 100	> 71.4	> 100	> 100	> 100	> 100	> 100	> 100	–	–	–	–
O=C(CSc1nnc(Cc2ccccc2)o1)Nc1cccc(Cl)c1	> 100	> 100	> 100	> 100	> 100	> 100	> 100	> 100	> 100	> 100	> 100	> 100	> 100	–	> 100	> 100	–	–	–	–
O=C1Oc2ccccc2C(=O)/C1=C/N1C(=O)/C(=C/c2ccc3c(c2)OCO3)SC1=S	36.6	28.9	> 51.2	37.2	35.7	> 58.8	35.9	30.5	40.9	38.3	43.5	22.7	51.5	> 47.7	22.9	33.2	39.7	10.1	7.14	–
CC(=O)NC(CCCCN(Cc1ccccc1)C(=O)NCCCl)C(=O)NCc1ccccc1 (centres undefined)	> 100	> 100	> 100	> 100	> 100	–	> 100	> 100	> 100	> 100	> 100	–	> 100	> 100	> 100	> 100	–	–	–	–
CCOC(=O)[C@@H]1OC(c2ccccc2)O[C@H]1C(=O)OCC	> 100	–	> 100	> 100	> 100	> 100	> 100	> 100	> 100	> 100	> 100	> 100	> 100	> 100	> 100	> 100	> 100	–	–	–
Cn1c2c(c3ccccc31)CCN1OCC=C[C@@H](C(=O)O)[C@@H]21	> 100	> 100	> 100	> 100	–	> 100	–	–	> 100	–	> 100	> 100	> 100	> 100	> 100	> 100	> 100	–	–	–
O=C(/C=C/c1ccc(O)c(O)c1)OC1C[C@@](O)(C(=O)O)C[C@@H](O)[C@H]1OC(=O)/C=C/c1ccc(O)c(O)c1 (some centres undefined)	> 100	> 100	> 100	> 100	> 100	> 100	> 100	> 100	> 100	> 100	> 100	> 100	> 100	> 100	> 100	> 100	–	–	–	–
CN(C)C(=S)N1C(=S)N(c2ccccc2)C(=Nc2ccccc2)C1=Nc1ccccc1	> 100	> 100	> 100	> 100	> 100	> 100	> 100	> 100	> 100	> 100	> 100	> 100	> 100	> 100	> 100	> 100	> 100	–	–	–
COc1ccc(N=Nc2c(C)c(C#N)c(=S)n(C3OC(COC(C)=O)C(OC(C)=O)C(OC(C)=O)C3OC(C)=O)c2C)cc1 (centres undefined)	> 100	> 100	> 100	> 100	> 100	> 100	> 100	> 100	–	> 100	> 100	> 100	> 100	> 100	> 100	–	–	–	–	> 100
N#CC(/C(=N\NC(=O)c1ccncc1)C(=O)Nc1ccc([N+](=O)[O-])cc1[N+](=O)[O-])c1nc(-c2ccc(Br)cc2)cs1 (centres undefined)	> 100	> 100	> 100	> 100	> 100	> 100	> 100	–	> 100	> 100	> 100	> 100	> 100	> 100	> 100	> 100	–	–	–	–
CCOC(=O)CCC(NC(=O)OCc1ccccc1)C(=O)NC(CCC(=O)OCC)C(=O)NC(Cc1ccc([N+](=O)[O-])cc1)C(=O)NC(CCC(=O)OCC)C(=O)NC(CCC(=O)OCC)C(=O)OCC (centres undefined) (Cbz-E(OEt)E(OEt)[Phe(4-NO2)]E(OEt)E(OEt)-OEt; configuration not given here)	> 100	–	> 100	> 100	–	> 100	> 100	> 100	> 100	> 100	> 100	> 100	> 100	> 100	> 100	> 100	> 100	–	–	> 100
CCCCCN1CCN(c2ncccn2)CC1	> 100	> 100	> 100	> 100	> 100	> 100	–	> 100	> 100	> 100	> 100	> 100	> 100	> 100	> 100	> 100	> 100	–	–	–
COc1c(C)c2c(c3c1c(=O)c1ccccc1n3C)C=CC(C)(C)O2	99.1	95.6	44.8	> 100	66	32.9	67.8	> 100	91.5	76.8	> 100	> 100	76.6	33.4	66	> 100	–	–	–	–

From PubChem BioAssay (NCI)
